In patent US20210162091A1, “WASH-DURABLE, FLUID ABSORBENT SUBSTRATE WITH ANTIMICROBIAL PROPERTIES AND/OR IMPROVED WASHABILITY, AND HYGIENE PRODUCT SUCH AS REUSABLE SANITARY NAPKIN” (Livinguard AG, priority 2015, published 2021):

Legend:
[1] = tested on: fungi (Candida albicans and Aspergillus niger); assay: Antimicrobial performance against fungi (AATCC 100:2012, summary in words); type: cell-based; settings: single agent, 6% o.w.f. chemical
Method: (§1) All microbiological tests were performed with cultures of the bacteria Escherichia coli American Type Culture Collection (ATCC) 25922, Staphylococcus aureus ATCC 6538, Pseudomonas aeruginosa ATCC 15442, Salmonella enterica ATCC 10708, and of the fungi Candida albicans ATCC 10231, and Aspergillus niger ATCC 16404.

[2] = tested on: bacteria (Escherichia coli, Staphylococcus aureus, Pseudomonas aeruginosa, and Salmonella enterica); assay: Antimicrobial performance against bacteria (AATCC 100:2012, summary in words); type: cell-based; settings: single agent, 6% o.w.f. chemical
Method: as §1

| Molecule | Efficiency for killing fungi ([1]; adhered to polyester) | Efficiency for killing bacteria ([2]; adhered to polyester) | Efficiency for killing fungi ([1]; adhered to cotton) | Efficiency for killing bacteria ([2]; adhered to cotton) |
| --- | --- | --- | --- | --- |
| CCCCCCCCCCCCCCCCCC[N+](C)(C)CCC[Si](OC)(OC)OC [dimethyloctadecyl[3-(trimethoxysilyl)propyl] ammonium chloride] | not efficient for killing fungi | about equally efficient in killing bacteria |  |  |
| CCCC1COC(Cn2cncn2)(c2ccc(Cl)cc2Cl)O1 (stereo not drawn) [propiconazole, reference compound] | works well against fungi | about as efficient against bacteria as silver and quaternary ammonium organosilane | efficient for killing fungi | not efficient for killing bacteria |
| polyhexamethylene biguanide [PHMB] |  |  | perform poorly | about equally efficient for killing bacteria |
| silver | not efficient for killing fungi | about equally efficient in killing bacteria | perform poorly | about equally efficient for killing bacteria |
